Experiments:
Assay type in all cases: cell-based, human
[1] = system: primitive streak-like mesoderm population; test: Paraxial mesoderm specification in monolayer culture, flow cytometry of cell surface markers; settings: day 4 to day 6 with Dorsomorphin, bFGF, SB431542; read on day 15
Method: FIG. 2. Characterization of paraxial mesoderm derived from hPSCs. Flow cytometric analysis of day 5 mesoderm treated with no additional factors (0 DM, no FGF), FGF, 4 μM DM, or 4 μM DM+FGF. Day 5 profiles depict KDR and PDGFRa expression, a double-positive population (gated) indicates mesoderm that has cardiac potential (20). Treatment with FGF results in less PDGFRa expression on day 5. (B) Expression of cell surface markers CD73, CD105, and PDGFR-beta on mesoderm populations on day 15 of differentiation. […] Experimental cell treatments during day 4 to day 6 include the combination of Dorsomorphin, bFGF, TGFbeta inhibitor (SB431542) in the presence or absence of the wnt pathway inhibitor IWP2. Flow cytometric analyses of CD73 and CD105, on day 15 mesoderm populations derived as indicated. (D) Gene expression analyses of day 15 mesoderm populations derived in indicated factors. Nkx2.5 is a cardiac transcription factor, Meox1 and Nkx3.2 are paraxial mesoderm and somite transcription factors. (E) Micrographs depicting 1 day old micromasses and 1 week old micromasses derived from day 15 mesoderm populations as indicated. (F) Flow cytometric analysis of cardiac troponin T (cTnT) expression in 1 week old micromasses derived from day 15 mesoderms as indicated. […] To generate chondrocytes, it is essential to first specify this PS population to a paraxial mesoderm fate. Previous studies have shown that mesoderm populations that express cell surface markers often found on mesenchymal stem cells, CD73 and CD105, have chondrogenic potential (Hwang, Kim et al. 2006). The expression of these two cell surface markers, as well as the expression of transcription factors Meox1 and Nkx3.2 combined with the lack of expression of Nkx2.5 to monitor the emergence of a paraxial mesoderm population was used. Previous experiments in the mouse ESC model system have shown the importance of inhibiting the BMP signaling pathway in the context of FGF signaling to prevent the emergence of cardiac mesoderm and promote the development of paraxial mesoderm (Craft, Ahmed et al. 2013). […] Very few cells in untreated mesoderm conditions expressed CD73 and CD105 (7.46%, FIG. 2B). […] The changes in expression of these surface markers were accompanied by the upregulation of paraxial genes Meox1 and Nkx3.2 (FIG. 2C). […] Thus, in some cell lines, the efficiency of paraxial mesoderm specification may be improved in the presence of a Wnt pathway antagonist immediately following the PS mesoderm induction phase.

[2] = system: hPSC-derived articular chondrocytes; test: Response of hPSC-derived articular-like cartilage to IL1β
Method: FIG. 9. hPSC-derived articular-like cartilage respond appropriately to the pro-inflammatory molecule IL1β. (A) The experimental plan is depicted. Articular cartilage tissues were derived from hPSCs for 10 weeks in the presence of TGFβ3. Cartilage tissues (micromasses) were treated for two weeks (from week 10-12) with TGFβ3 or IL1β (10 ng/ml), as indicated. […] Values represent copy number mRNA relative to TBP (n=7). Error bars indicate s.e.m. (K) Histological analysis of 12-week tissues after treatments as indicated. Metachromatic toluidine blue staining indicates proteoglycans.
Access to an unlimited supply of hPSC-derived articular-like cartilage provides an opportunity to establish platforms to analyze the effects of pro-inflammatory cytokines such as […] (IL1beta), known to play a role in the early stages of osteoarthritis (OA). […] These enzymes cleave proteins found in cartilage extracellular matrix (ECM), such as collagens and aggrecans, which leads to the degradation of cartilage tissue. Significant upregulation of MMP13 and ADAMTS4 was observed only in the absence of TGFbeta3. ADAMTS5 was induced with or without TGFbeta3 present.

[3] = system: hPSC-derived paraxial mesoderm; test: Chondrocyte specification in micromass culture with TGFB3 or BMP4 (histology, scatter flow cytometry, qRT-PCR, immunostaining); settings: for CILP2 expression / COL2A1 expression / PRG4 (lubricin) expression: 12 weeks of micromass culture, TGF agonist 10 ng/ml
Description: FIG. 4. TGFB3 and BMP4 specify chondrocytes and cartilage-like tissues with articular cartilage and growth plate cartilage phenotypes. (A) Micrographs of 5 week old micromasses derived with TGFB3 or BMP4, 20× magnification. (B) Tissue histology (stained with toluidine blue) of 13 week cartilage tissues derived with TGFB3 or BMP4. […] (C) Flow cytometric analysis of forward and side cell scatter parameters of 3 week and 5 week old micromasses. Side scatter indicates cell granularity and forward cell scatter indicates cell size. (D) Comparison of hPSC-derived micromass tissues to fetal primary chondrocyte derived micromass tissues and the developing human fetal femur cartilage. Articular cartilage regions appear to have smaller cells in size compared to growth plate like regions, which contain cells which appear enlarged (hypertrophic). Cartilage tissues in micromass as well as in the fetal femur stain uniformly with the toluidine blue stain (images are pink/purple in color and indicate the presence of cartilage proteins). The BMP4-treated micromass tissues contain a large number of enlarged cells which is similar to the bottom panel of the fetal cartilage which represents a growth plate cartilage. TGFB3 treated micromass cultures contain fewer, if any, enlarged chondrocytes, and appear similar to the upper panel of the fetal cartilage which is the site of articular cartilage. (E) Micrograph using GDF5 instead of BMP4 to generate hypertrophic chondrocytes. (F) Histological analyses of cartilage tissues derived from hiPSCs stained with Toluidine blue after 12 weeks. (G,H) Immunohistochemical staining of hESC-derived cartilage tissues for type II Collagen (G, 8 week tissues), and lubricin (H, 12 week tissues).
FIG. 5. Gene expression analyses of chondrocyte specification in the presence of TGFB3 or BMP4 during stages 3 and 4 of differentiation respectively. General chondrocyte genes Sox9 (A) and collagen 2 (B), hypertrophic genes collagen 10 (C), Runx2 (D), osterix (E) and alkaline phosphatase (F), articular cartilage associated genes lubricin (G) and cartilage intermediate layer protein 2 (CILP2) (H), interzone-related (joint progenitor) genes GDF5 (I), ERG (J) and Wnt9a (K). Expression is copy number relative to TBP (n=3 to 8 biological replicates) and is compared to primary fetal chondrocytes (aged 16 to 19 weeks, n=4), primary healthy adult articular chondrocytes (n=2), and growth plate-like chondrocytes isolated from the iliac crest of an adult (n=1). T15 Mesoderm indicates day 15 hESC-derived paraxial mesoderm (DM+FGF-treated). Error bars indicate s.e.m.
FIG. 8. TGFβ1, TGFβ2, and TGFβ3 generated articular chondrocytes from hPSC-derived paraxial mesoderm. COL2A1, lubricin, and CILP2 gene expression after 12 weeks of micromass culture in the presence of TGF agonists as indicated (10 ng/ml). Values represent copy number mRNA relative to TBP. Error bars indicate s.e.m.
Previous studies have shown that TGFBeta/BMP signaling is required to generate chondrocyte progenitors from paraxial mesoderm. […] Following 10 days of TGFb3 treatment (day 25 total), cultures could be switched to media containing BMP4 or maintained in TGFb3 (stage 4) in order to specify subsets of chondrocytes (articular/non-hypertrophic or growth plate/hypertrophic). To determine the chondrocyte potential of the day 15 mesoderm populations, the cells were plated at high cell density in a 20 microliter volume on tissue culture treated Petri dishes for an hour (micromass) and then the ‘spot’ was submerged/covered with media. In our initial studies, the cells were ‘spotted’ in a media containing 2% fetal bovine serum. However, this short serum exposure can be omitted with no effects on cartilage formation at later stages, making this protocol optionally serum-free. After 2 to 3 days, serum-free media containing TGFb3 is added to the culture to generate chondrocyte progenitors. […]

[4] = IL1beta in presence of TGFbeta3
[5] = IL1β 10 ng/ml, week 10-12, absence of TGFb3
[6] = IL1β 10 ng/ml, week 10-12, absence of TGFbeta3

## Cc1ccc2nc(NC(=O)CSc3nc4c(c(=O)n3-c3ccccc3)SCC4)sc2c1 [IWP2, N-(6-Methyl-2-benzothiazolyl)-2-[(3,4,6,7-tetrahydro-4-oxo-3-phenylthieno[3,2-d]pyrimidin-2-yl)thio]-acetamide, reference compound]
[1]
  CD73 and CD105 expression with Wnt inhibition: improve the efficiency of CD73 and CD105 expression

## IL1beta: pro-inflammatory cytokine
[2]; [4]
  CILP2 expression: downregulated
  lubricin (PRG4) expression: downregulated
[2]; IL1beta with TGFbeta3 present
  ADAMTS5 expression: induced
[2]; IL1β 10 ng/ml, week 10-12
  ACAN expression: reduction
  COL2A1 expression: reduction
  vascular endothelial growth factor (VEGF) expression: increase
[2]; IL1β 10 ng/ml, week 10-12, 12-week tissues
  proteoglycans in the tissue (toluidine blue): noticeable loss
[2]; [5]
  ADAMTS4 expression: upregulation
  ADAMTS5 expression: upregulation
  MMP2 expression: upregulation
  MMP13 expression: upregulation
[2]; [6]
  CILP2 expression: downregulated
  lubricin (PRG4) expression: downregulated

## TGFbeta1: TGFbeta agonist
[3]
  CILP2 expression: upregulated
  COL2A1 expression: upregulated
  PRG4 (lubricin) expression: upregulated

B1: TGFbeta2: TGFbeta agonist (protein, UniProt P61812 303-414, looked up)
Transforming growth factor …: ALDAAYCFRNVQDNCCLRPLYIDFKRDLGWKWIHEPKGYNANFCAGACPYLWSSDTQHSRVLSLYNTINPEASASPCCVSQDLEPLTILYYIGKTPKIEQLSNMIVKSCKCS
[3]
  CILP2 expression: upregulated
  COL2A1 expression: upregulated
  PRG4 (lubricin) expression: upregulated

B2: GDF5: growth and differentiation factor 5, BMP4 agonist (protein, UniProt P43026 382-501, looked up)
Growth/differentiation factor …: APLATRQGKRPSKNLKARCSRKALHVNFKDMGWDDWIIAPLEYEAFHCEGLCEFPLRSHLEPTNHAVIQTLMNSMDPESTPPTCCVPTRLSPISILFIDSANNVVYKQYEDMVVESCGCR
[3]; 13 week old tissues, GDF5 instead of BMP4
  tissue histology (toluidine blue), chondrocyte size: generates hypertrophic chondrocytes
